Like-named read-outs stand apart in the source and are kept apart here.
What was measured:
[1] = system: Hela MKYP (Mito-Keima/YFP-Parkin) cells; conditions: human, 22 h
Experimental: (§1) Briefly, the Hela MKYP (Mito-Keima/YFP-Parkin) cells were seeded at 10K cells/well. EP/MTK compounds were added at seeding (cells were still in suspension). The cells were incubated with the EP/MTK compounds for 16 hours, then 1 μM FCCP/oligomycin was added for 6 hours. Prior to harvesting, cells were scored by eye under 20× magnification for the presence or absence of crystalline or aggregated compound, or round cells.

HeLa MKYP cells = test: Toxicity / cell death measured by DAPI staining (take-up); assay type: cell-based; conditions: human, 50 μM
Experimental: H2O2 treatment was performed as a control for cell death as measured by DAPI staining.
Briefly, HeLa MKYP cells were plated at 10,000 cells/well in 96 well plates along with compounds at various concentrations. Following 16 hrs of incubation, cells were treated with 1 uM FCCP/oligomycin for 6 hours, then analyzed via FACS for the presence of mitochondria in lysosomes (as determined by an emissions spectrum shift from the pH-sensitive mtKeima tag).

[2] = Visual inspection of crystallization; assay type: physicochemical; design: key: 1: yes crystals; 0: no crystals; conditions: Tables 5A-5D
Experimental: as §1

c1coc(CNc2ncnc3[nH]cnc23)c1 [kinetin, reference compound]
Inspection of round cells ([1]; 1.6 μM): 0
Inspection of round cells ([1]; 3.1 μM): 0
Inspection of round cells ([1]; 6.3 μM): 0
Inspection of round cells ([1]; 12.5 μM): 0
Inspection of round cells ([1]; 25 μM): 0
Inspection of round cells ([1]; 50 μM): 0
Toxicity (% positive for DAPI take-up @ 50 μM) (HeLa MKYP cells): 4.9%
Visual inspection of crystallization ([2]; 1.6 μM): 0
Visual inspection of crystallization ([2]; 3.1 μM): 0
Visual inspection of crystallization ([2]; 6.3 μM): 0
Visual inspection of crystallization ([2]; 12.5 μM): 0
Visual inspection of crystallization ([2]; 25.0 μM): 0
Visual inspection of crystallization ([2]; 50.0 μM): 0

From patent US20220162215A1, “COMPOSITIONS AND METHODS OF USING THE SAME FOR TREATMENT OF NEURODEGENERATIVE AND MITOCHONDRIAL DISEASE” (MITOKININ, INC., priority 2019, published 2022)
